Measurements published in paper PMC10950204 (Journal of medicinal chemistry, 2024).
Like-named read-outs stand apart in the source and are kept apart here.

Assays:
P. falciparum 3D7 = test: SYBR Green I-based proliferation assay, ring stage parasites; details: read-out: Antiplasmodial Activity 3D7 EC50, 72 h
MCF7 = test: MTS-based cytotoxicity assay; format: cell-based, human
HepG2 = test: MTS-based cytotoxicity assay; format: cell-based, human
P. falciparum Dd2 [1] = test: SYBR Green I-based proliferation assay, ring stage parasites; details: for fold loss of antiplasmodial potency: relative to compound 1; for further decrease in the potency: on removing the nitrogen from pyridine / thiophenylpyridine
[2] = system: panel of 468 kinases (403 nonmutant kinases); test: KINOMEscan Profiling Service, binding at 1 μM; set-up: species or system human; details: screened at 1 μM
[3] = system: asynchronous Dd2 cultures; test: Rate of killing assay, flow cytometry-based; details: 10 × EC50 for as little as 12 h, washed, monitored 4 days
human EphA2 = human EphA2 (Homo sapiens, UniProt P29317); test: SelectScreen kinase profiling, in vitro FRET-based assay; format: biochemical; details: compared to compound 5
human EphA2, sequence (P29317 24-976): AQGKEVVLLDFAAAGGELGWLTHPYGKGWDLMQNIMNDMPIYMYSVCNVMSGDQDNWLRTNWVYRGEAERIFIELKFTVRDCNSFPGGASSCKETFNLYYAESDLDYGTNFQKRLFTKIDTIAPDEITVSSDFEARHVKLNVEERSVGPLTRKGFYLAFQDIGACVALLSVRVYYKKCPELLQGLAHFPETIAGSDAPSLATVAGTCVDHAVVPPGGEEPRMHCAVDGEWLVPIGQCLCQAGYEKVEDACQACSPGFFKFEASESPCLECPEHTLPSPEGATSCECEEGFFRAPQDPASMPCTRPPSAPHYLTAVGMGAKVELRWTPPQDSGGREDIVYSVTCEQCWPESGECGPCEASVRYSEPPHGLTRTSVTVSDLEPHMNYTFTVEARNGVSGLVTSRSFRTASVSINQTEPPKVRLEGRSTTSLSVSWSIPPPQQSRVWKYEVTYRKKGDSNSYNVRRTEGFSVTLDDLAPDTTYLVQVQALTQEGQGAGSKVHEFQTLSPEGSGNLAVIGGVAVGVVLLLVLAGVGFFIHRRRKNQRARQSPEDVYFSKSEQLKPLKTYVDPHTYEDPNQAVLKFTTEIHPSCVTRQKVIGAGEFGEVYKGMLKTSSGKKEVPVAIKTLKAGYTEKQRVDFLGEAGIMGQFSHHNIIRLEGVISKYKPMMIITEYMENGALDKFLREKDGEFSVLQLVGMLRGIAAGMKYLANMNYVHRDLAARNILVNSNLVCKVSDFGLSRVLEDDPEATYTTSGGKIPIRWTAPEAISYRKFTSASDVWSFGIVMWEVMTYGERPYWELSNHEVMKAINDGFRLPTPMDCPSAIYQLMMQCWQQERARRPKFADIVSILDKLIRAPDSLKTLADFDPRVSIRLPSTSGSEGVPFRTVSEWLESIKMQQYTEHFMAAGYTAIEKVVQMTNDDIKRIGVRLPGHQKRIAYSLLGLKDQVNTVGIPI

[4] = system: P. falciparum strains 3D7, IPC 5188, IPC 5202, IPC 6261; test: Ring stage survival assay; details: 10 × EC50 for 6 h, survival at 72 h, all strains
P. falciparum Dd2 [5] = test: SYBR Green I-based proliferation assay, asynchronous blood stage cultures; details: compared to compound 5, Dd2
[6] = system: P. falciparum strains 3D7, IPC 5188, IPC 5202, IPC 6261; test: Piperaquine survival assay; details: 10 × EC50 for 48 h, regardless of strain
[7] = In vitro metabolic stability in mouse liver microsomes; format: in vitro ADME
P. falciparum Dd2-B2 = test: Minimum inoculum of resistance; format: cell-based; details: 3 × EC10, monitored 50 days
[8] = system: P. falciparum lines AcAS A597 V, CARL I1139K, PI4K S1320L; test: Cross resistance evaluation, SYBR Green I assay; format: cell-based; details: PI4K mutant lines
[9] = Kinetic solubility, miniaturized shake-flask method; format: physicochemical; details: Table S1, 1× PBS pH 7.4
[10] = system: P. falciparum strains 3D7, IPC 5188, IPC 5202, IPC 6261; test: EC50 determination in artemisinin and piperaquine resistant isolates; details: all strains, Figure 4C
[11] = system: P. falciparum 3D7 blood-stage parasites; test: Parasite reduction ratio; details: 10 × EC50, ring stage
Synchronized Dd2 culture = test: Stage specific assay, YOYO-1 flow cytometry and microscopy; format: cell-based, P. falciparum
Caco-2 cells = test: Caco-2 permeability; format: in vitro ADME; details: Table S1, Caco-2
[12] = cited from earlier work
ring stage = details: read-out: ring stage EC50; cited from earlier work

Molecule: 3-Amino-N-(4-((4-ethylpiperazin-1-yl)methyl)-3-(trifluoromethyl)phenyl)-5-methylbenzamide [Compound 28]
- EC50 (P. falciparum 3D7): 235 ± 34 nM
- EC50 (MCF7): 5220 ± 517 nM
- Selectivity Index (SI) MCF7 (MCF7; MCF7 EC50/P. falciparum Dd2 EC50): 14
- EC50 (HepG2): 3200 ± 238 nM
- Selectivity Index (SI) HepG2 (HepG2; HepG2 EC50/P. falciparum Dd2 EC50): 8.6
- Resistance Index (RI) (P. falciparum Dd2 [1]; P. falciparum Dd2 EC50/P. falciparum 3D7 EC50): 1.6
- EC50 (P. falciparum Dd2 [1]; read-out: Antiplasmodial Activity Dd2 EC50, ring stage parasites, 72 h): 372 ± 37 nM
- fold loss of antiplasmodial potency (P. falciparum Dd2 [1]): 6 fold

Molecule: CCN1CCN(Cc2ccc(NC(=O)c3cc(Cl)cc(NC(=O)c4cncc(-c5cccs5)c4)c3)cc2C(F)(F)F)CC1 [Compound 1, N-(3-Chloro-5-((4-((4-ethylpiperazin-1-yl)methyl)-3-(trifluoromethyl)phenyl)carbamoyl)phenyl)-5-(thiophen-2-yl)nicotinamide]
- S (10) selectivity score [2]: 0.035
- parasite recovery after treatment [3]: failed to recover within 4 days
- fold reduction in human EphA2 activity (human EphA2): ~900 fold
- ring stage survival [4]: notably higher than that of the DHA-treated cultures
- fold increase in antiplasmodial activity (P. falciparum Dd2 [5]): over 48 fold
- survival in piperaquine survival assay [6]: did not survive the 48 h treatment
- microsomal stability and clearance [7]: suitable microsomal stability and low clearance
- parasite recovery under continuous treatment (P. falciparum Dd2-B2): failed to recover within 50 days
- cross-resistance, EC50 among resistant lines [8]: no difference
- solubility [9]: poor
- EC50 values [10]: low nanomolar range
- 99.9% parasite clearance time (PCT) [11]: less than 32 h
- lag phase [11]: no lag phase detected
- stage specific effect (Synchronized Dd2 culture; 5 × EC50 added at 6 HPI): parasites seemed to remain stunted in the ring stage
- stage specific effect (Synchronized Dd2 culture; 5 × EC50 added at 42 HPI): the effect was much less pronounced
- stage specific effect (Synchronized Dd2 culture; 5 × EC50 applied at both 18 and 30 HPI): there was a delayed shift, and parasites were clearly malformed
- cell permeability (Caco-2 cells): poor

Molecule: CCN1CCN(Cc2ccc(NC(=O)c3cc(Cl)cc(NC(=O)c4cccnc4)c3)cc2C(F)(F)F)CC1 [Compound 6, N-(3-Chloro-5-((4-((4-ethylpiperazin-1-yl)methyl)-3-(trifluoromethyl)phenyl)carbamoyl)phenyl)nicotinamide]
- microsomal stability and clearance [7]: metabolized rapidly
- fold loss of antiplasmodial potency (P. falciparum Dd2 [1]): 3 fold

Molecule: CCN1CCN(Cc2ccc(NC(=O)c3cc(Cl)cc(NC(=O)c4ccccc4)c3)cc2C(F)(F)F)CC1 [Compound 8, 3-Benzamido-5-chloro-N-(4-((4-ethylpiperazin-1-yl)-methyl)-3-(trifluoromethyl)phenyl)benzamide]
- further decrease in the potency (P. falciparum Dd2 [1]): 4- to 5 fold

Molecule: CCN1CCN(Cc2ccc(NC(=O)c3cc(Cl)cc(NC(=O)c4cccc(-c5cccs5)c4)c3)cc2C(F)(F)F)CC1 [Compound 9, 3-Chloro-N-(4-((4-ethylpiperazin-1-yl)methyl)-3-(trifluoromethyl)phenyl)-5-(3-(thiophen-2-yl)benzamido)-benzamide]
- further decrease in the potency (P. falciparum Dd2 [1]): 4- to 5 fold

Molecule: CCN1CCN(Cc2ccc(NC(=O)c3cc(Cl)cc(NC(=O)c4cncc(-c5ccc(C#N)cc5)c4)c3)cc2C(F)(F)F)CC1 [Compound 16, N-(3-Chloro-5-((4-((4-ethylpiperazin-1-yl)methyl)-3-(trifluoromethyl)phenyl)carbamoyl)phenyl)-5-(4-cyanophenyl)nicotinamide]
- ring stage survival [4]: notably higher than that of the DHA-treated cultures
- survival in piperaquine survival assay [6]: did not survive the 48 h treatment
- EC50 values [10]: low nanomolar range
- 99.9% parasite clearance time (PCT) [11]: less than 32 h
- lag phase [11]: no lag phase detected

Molecule: CCN1CCN(Cc2ccc(NC(=O)c3cc(Cl)cc(Nc4cncc(-c5cccs5)c4)c3)cc2C(F)(F)F)CC1 [Compound 17, 3-Chloro-N-(4-((4-ethylpiperazin-1-yl)methyl)-3-(trifluoromethyl)phenyl)-5-((5-(thiophen-2-yl)pyridin-3-yl)-amino)benzamide]
- fold loss of antiplasmodial potency (P. falciparum Dd2 [1]): 6 fold

Molecule: CCN1CCN(Cc2ccc(NC(=O)c3cc(Cl)cc(NCc4cncc(-c5cccs5)c4)c3)cc2C(F)(F)F)CC1 [Compound 18, 3-Chloro-N-(4-((4-ethylpiperazin-1-yl)methyl)-3-(trifluoromethyl)phenyl)-5-(((5-(thiophen-2-yl)pyridin-3-yl)-methyl)amino)benzamide]
- fold loss of antiplasmodial potency (P. falciparum Dd2 [1]): 6 fold

Molecule: CCN1CCN(Cc2ccc(NC(=O)c3cc(Cl)cc(NC(=O)c4cncc(-c5cccs5)c4)c3)cc2)CC1 [Compound 22, N-(3-Chloro-5-((4-((4-ethylpiperazin-1-yl)methyl)phenyl)-carbamoyl)phenyl)-5-(thiophen-2-yl)nicotinamide]
- microsomal stability and clearance [7]: suitable microsomal stability and low clearance

Molecule: O=C(Nc1ccnc(N2CCOCC2)c1)c1cc(Cl)cc(NC(=O)c2cncc(-c3cccs3)c2)c1 [Compound 23, N-(3-Chloro-5-((2-morpholinopyridin-4-yl)carbamoyl)-phenyl)-5-(thiophen-2-yl)nicotinamide]
- fold loss of antiplasmodial potency (P. falciparum Dd2 [1]): 13 fold

Molecule: CCN1CCN(Cc2ccc(NC(=O)c3cc(NC(=O)c4cncc(-c5cccs5)c4)ccc3F)cc2C(F)(F)F)CC1 [Compound 26, N-(3-((4-((4-Ethylpiperazin-1-yl)methyl)-3-(trifluoromethyl)phenyl)carbamoyl)-4-fluorophenyl)-5-(thiophen-2-yl)nicotinamide]
- EC50 (P. falciparum Dd2 [1]; Plasmodium falciparum, DD2, 72 h, read-out: Antiplasmodial Activity Dd2 EC50 (nM), ring stage parasites, 72 h): 867 nM

Molecule: CCN1CCN(Cc2ccc(NC(=O)c3cncc(NC(=O)c4cncc(-c5cccs5)c4)c3)cc2C(F)(F)F)CC1 [Compound 30, N-(4-((4-Ethylpiperazin-1-yl)methyl)-3-(trifluoromethyl)-phenyl)-5-(5-(thiophen-2-yl)nicotinamido)nicotinamide]
- microsomal stability and clearance [7]: metabolized rapidly
- improvement in both potency and selectivity (P. falciparum Dd2 [1]; compound 30 relative to compound 29): more than 7 fold

Molecule: CCN1CCN(Cc2ccc(NC(=O)c3cc(Br)cc(NC(=O)c4cncc(-c5cccs5)c4)c3)cc2C(F)(F)F)CC1 [Compound 32, N-(3-Bromo-5-((4-((4-ethylpiperazin-1-yl)methyl)-3-(trifluoromethyl)phenyl)carbamoyl)phenyl)-5-(thiophen-2-yl)nicotinamide]
- microsomal stability and clearance [7]: suitable microsomal stability and low clearance

Molecule: CCN1CCN(Cc2ccc(NC(=O)c3cc(NC(=O)c4cncc(-c5cccs5)c4)cc(C(F)(F)F)c3)cc2C(F)(F)F)CC1 [Compound 33, N-(3-((4-((4-Ethylpiperazin-1-yl)methyl)-3-(trifluoromethyl)phenyl)carbamoyl)-5-(trifluoromethyl)-phenyl)-5-(thiophen-2-yl)nicotinamide]
- microsomal stability and clearance [7]: suitable microsomal stability and low clearance

Molecule: CC1(C)c2nc(-c3ccc(F)cc3)c(Nc3ccc(Cl)cc3)n2CCN1C(=O)CN [GNF179]
- half-life [12]: 8.9 h

Molecule: Cc1cn(-c2cc(NC(=O)c3ccc(C)c(Nc4nccc(-c5cccnc5)n4)c3)cc(C(F)(F)F)c2)cn1 [nilotinib]
- EC50 (ring stage): < 1000 nM
